Literature values as cited in US8871712B2, “Somatostatin analogue formulations” (Camurus AB, priority 2005, dated 2014).

Conditions: in vivo

In the case of `C[C@@H](O)[C@@H]1NC(=O)[C@H](CCCCN)NC(=O)[C@@H](Cc2c[nH]c3ccccc23)NC(=O)[C@H](Cc2ccccc2)NC(=O)[C@@H](NC(=O)[C@H](N)Cc2ccccc2)CSSC[C@@H](C(=O)N[C@H](CO)[C@@H](C)O)NC1=O` [Octreotide, D-Phe-Cys-Phe-D-Trp-Lys-Thr-Cys-Thr-ol (2-7 disulphide bridge)], the Terminal half-life is given as “around 1.7 hours”.
